Test results published in patent US8410309B2, “Phenoxy carboxylic acid compounds and compositions for delivering active agents” (Emisphere Technologies, Inc., priority 1999, dated 2013).
Where “and” joins values, the source holds several entries; their conditions need not be identical. Equal entries are not always repeated.

assay: Insulin oral delivery, serum human insulin by ELISA; details: rats, delivery agent compound 200 mg/kg, insulin 0.5 mg/kg, 1 ml/kg
Method: Oral dosing (PO) compositions of delivery agent compound and human zinc insulin (minimum 26 IU/mg available from Calbiochem—Novabiochem Corp, La Jolla, Calif.) were prepared in deionized water. […] The pH was adjusted to about 7 to 8.5 with NaOH or HCl. […] The final delivery agent compound dose, insulin dose and dose volume amounts are listed below in Table 8.
The typical dosing and sampling protocols were as follows.
Serum insulin levels were determined with an Insulin ELISA Test Kit (Kit # DSL-10-1600 from Diagnostic Systems Laboratories, Inc., Webster, Tex.), modifying the standard protocol in order to optimize the sensitivity and linear range of the standard curve for the volumes and concentrations of the samples used in the present protocol. […] The five values for each time point were averaged and the results plotted as serum insulin concentration versus time.

Row | Structure (SMILES) | Mean Peak Serum [INS] ± SD
1 | O=C(O)CCCCCCCOc1ccccc1[N+](=O)[O-] [Compound 20] | 27.68 ± 12.5 μU/ml
2 | Nc1ccccc1OCCCCC(=O)O [Compound 21] | 14.46 ± 21.61 μU/ml
3 | O=Cc1ccccc1OCc1ccc(C(=O)O)cc1 [Compound 59] | 315.53 ± 154.56 μU/ml
4 | O=C(O)CCCCOc1ccccc1F [Compound 75] | 33.88 ± 38.49 μU/ml and 32.54 ± 19.78 μU/ml
5 | O=C(O)CCCCOc1ccccc1C(F)(F)F [Compound 76] | 24.72 ± 25.53 μU/ml and 38.74 ± 74.4 μU/ml

same assay, conditions: rats, delivery agent compound 200 mg/kg, insulin 3 mg/kg, 1 ml/kg

Row | Mean Peak Serum [INS] ± SD [μU/ml] | Structure (SMILES)
6 | 76.23 ± 76.88 | O=C(O)CCCCCCCOc1cccc(Cl)c1 [Compound 68]
7 | 4702.5 ± 4700.4 | O=C(O)CCCCCCCCCCOc1ccccc1O [Compound 72]

assay: Salmon calcitonin (sCT) oral delivery, serum sCT by EIA; details: rats, delivery agent compound dose 150 mg/kg, sCT dose 30 μg/kg, dose volume 1 (ml)
Method: Oral dosing (PO) compositions of a delivery agent compound and salmon calcitonin (sCT) in deionized water were prepared as described in Table 2 below. […] Either the sodium salt of the compound was used or the free acid was converted to the sodium salt by stirring the resultant solution and adding one equivalent of sodium hydroxide (1.0 N) and diluting with water. The solution was vortexed, then heated (about 37° C.) and sonicated. The pH was adjusted to about 7 (about 6.5 to 8.5) with NaOH or HCl. 90 μg sCT from a sCT stock solution (2 mg/ml made by adding 10001 pH 4 phosphate buffer to sCT and allowing it to go into solution by sitting for about 10-20 minutes and periodically gently inverting) was added to the solution.
The typical dosing and sampling protocols were as follows. Male Sprague-Dawley rats weighing between 200-250 g were fasted for 24 hours and administered ketamine (44 mg/kg) and chlorpromazine (1.5 mg/kg) 15 minutes prior to dosing and again as needed to maintain anesthesia. A dosing group of five animals was administered one of the dosing solutions. For oral dosing, an 11 cm Rusch 8 French catheter was adapted to a 1 ml syringe with a pipette tip. The syringe was filled with dosing solution by drawing the solution through the catheter, which was then wiped dry. The catheter was placed down the esophagus leaving 1 cm of tubing past the incisors. Solution was administered by pressing the syringe plunger.
Blood samples were collected serially from the tail artery, typically at time=0, 10, 20, 30, 60 and 90 minutes. […] Numbers were adjusted according to baseline values obtained at time=0. The results from the animals in each dosing group were averaged for each time point.

Row | Mean Peak Serum sCT (pg/ml ± SD) (SE) [pg/mL] | Structure (SMILES)
8 | 0 ± 62 | CC(O)c1ccccc1OCCCCCCCC(=O)O (stereo not shown) [Compound 36]
9 | 163 ± 300 | NC(=O)c1ccccc1OCc1ccc(C(=O)O)cc1 [Compound 52]
10 | 133 ± 90 | O=C(O)c1ccc(C(O)COc2ccccc2O)cc1 (stereo not shown) [Compound 79]

same assay, conditions: rats, delivery agent compound dose 150 mg/kg, sCT dose 30 μg/kg, dose volume 1 (ml), 150 mg/kg

Row | Structure (SMILES) | Mean Peak Serum sCT (pg/ml ± SD) (SE)
11 | O=C(O)CCCCCCCOc1ccccc1[N+](=O)[O-] [Compound 20] | 138 ± 107 pg/mL and 85 ± 82 pg/mL and 96 ± 135 pg/mL
12 | Nc1cc(Cl)ccc1OCCCCC(=O)O [Compound 23] | 161 ± 150 pg/mL and 122 ± 273 pg/mL
13 | COc1cccc(OCCCCCCCC(=O)O)c1C(C)=O [Compound 39] | 115 ± 120 pg/mL and 115 ± 178 pg/mL
14 | COc1ccc(C(C)=O)c(OCCCCCCCC(=O)O)c1 [Compound 56] | 165 ± 243 pg/mL and 90 ± 125 pg/mL and 113 ± 115 pg/mL and 175 ± 150 pg/mL

same assay, conditions: rats, delivery agent compound dose 150 mg/kg, sCT dose 30 μg/kg, dose volume 2 (ml)

Row | Mean Peak Serum sCT (pg/ml ± SD) (SE) [pg/mL] | Structure (SMILES)
15 | 14 ± 4183 | CC=Cc1ccccc1OCCCCCCCC(=O)O [Compound 18]

assay: Recombinant human growth hormone (rhGH) oral delivery, serum rhGH by immunoassay; details: oral gavage, rats; delivery agent compound 162 mg/kg, rhGH 2.6 mg/kg, volume dose 1 ml
Method: Oral gavage (PO) dosing solutions of delivery agent compound and rhGH in phosphate buffer were prepared by mixing. A solution of the delivery agent compound was made either with the sodium salt of the delivery agent compound or by converting the free acid to its sodium salt.
The typical dosing and sampling protocols were as follows. Male Sprague-Dawley rats weighing 200-250 g were fasted for 24 hours and administered ketamine (44 mg/kg) and chlorpromazine (1.5 mg/kg) 15 minutes prior to dosing and again as needed to maintain anesthesia. A dosing group of five animals was administered one of the dosing solutions. An 11 cm Rusch 8 French catheter was adapted to a 1 ml syringe with a pipette tip. The syringe was filled with dosing solution by drawing the solution through the catheter, which was then wiped dry. The catheter was placed down the esophagus leaving 1 cm of tubing past the incisors. The dosing solution was administered by pressing the syringe plunger.
Blood samples were collected serially from the tail artery typically at time=15, 30, 45, 60 and 90 minutes. The five samples from each time period were pooled (except for those samples for which standard deviation (SD) and standard error (SE) are reported). Serum rHGH concentrations were quantified by an rHGH immunoassay test kit (Kit # K1F4015 from Genzyme Corporation Inc., Cambridge, Mass.).

Row | Mean Peak Serum [rhGH] [ng/mL] | Structure (SMILES)
16 | 3.1 | CC=Cc1ccccc1OCCCCCCCC(=O)O [Compound 18]

same assay, conditions: oral gavage, rats; delivery agent compound 200 mg/kg, rhGH 3 mg/kg, volume dose 1 ml

Row | Mean Peak Serum [rhGH] [ng/mL] | Structure (SMILES)
17 | 223 | CC=Cc1ccccc1OCCCCCCCC(=O)O [Compound 18]
18 | 19.6 | Nc1ccccc1OCCCCC(=O)O [Compound 21]
19 | 0 | CC(O)c1ccccc1OCCCCCCCC(=O)O (stereo not shown) [Compound 36]
20 | 29 | CC(C)(O)c1ccccc1OCc1ccc(C(=O)O)cc1 [Compound 37]
21 | 0 | COc1cccc(OCCCCCCCC(=O)O)c1C(C)=O [Compound 39]
22 | 0 | NC(=O)c1ccccc1OCc1ccc(C(=O)O)cc1 [Compound 52]
23 | 12.4 | COc1ccc(OCCCCCCCC(=O)O)c(C(C)=O)c1 [Compound 55]
24 | 0 | COc1ccc(C(C)=O)c(OCCCCCCCC(=O)O)c1 [Compound 56]
25 | 1.5 ± 3.3 | O=Cc1ccccc1OCCCCCC(=O)O [Compound 60]
26 | 28 | O=C(O)CCCCCCCCCCOc1ccccc1O [Compound 72]

Row | Structure (SMILES) | Mean Peak Serum [rhGH] [ng/mL]
27 | O=C(O)CCCCCCCOc1ccccc1[N+](=O)[O-] [Compound 20] | 22.6
28 | CC(=O)Nc1ccccc1OCCCCCCCC(=O)O [Compound 24] | 1.76
